Common to all, as to assay type: cell-based
The target of one test is T1, EP1 receptors (Homo sapiens, UniProt P34995).
T1 sequence (P34995 1-402): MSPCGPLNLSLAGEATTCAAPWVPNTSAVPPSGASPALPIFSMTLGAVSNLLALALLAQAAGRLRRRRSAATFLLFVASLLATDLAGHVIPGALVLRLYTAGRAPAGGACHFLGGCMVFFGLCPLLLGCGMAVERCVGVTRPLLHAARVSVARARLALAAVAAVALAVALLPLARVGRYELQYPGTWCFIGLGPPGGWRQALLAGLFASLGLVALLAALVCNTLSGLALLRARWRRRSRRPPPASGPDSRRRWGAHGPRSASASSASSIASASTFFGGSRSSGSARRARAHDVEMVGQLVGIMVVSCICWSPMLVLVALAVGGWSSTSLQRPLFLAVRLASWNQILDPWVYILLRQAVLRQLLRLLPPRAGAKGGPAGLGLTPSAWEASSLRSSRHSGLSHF
Kind of test: human EP1 calcium mobilisation assay (CHO-K1 cells, PGE2, FLIPR). The note with it: free bases or sodium salts; averages of a number of experiments; read-out: functional pKi value, human EP1 calcium mobilisation assay (converted). On the set-up: expressed in transfected cells; host or cells: CHO-K1. As for the experimental part: (§1) Briefly, the antagonist properties of compounds are assessed by their ability to inhibit the mobilisation of intracellular calcium ([Ca^2+]i) in response to activation of EP1 or EP3 receptors by the natural agonist hormone prostaglandin E2 (PGE2). Increasing concentrations of antagonist reduce the amount of calcium that a given concentration of PGE2 can mobilise. The net effect is to displace the PGE2 concentration-effect curve to higher concentrations of PGE2. The amount of calcium produced is assessed using a calcium-sensitive fluorescent dye such as Fluo-4, AM and a suitable instrument such as a Fluorimetric Imaging Plate Reader (FLIPR). Increasing amounts of [Ca^2+]i produced by receptor activation increase the amount of fluorescence produced by the dye and give rise to an increasing signal. The signal may be detected using the FLIPR instrument and the data generated may be analysed with suitable curve-fitting software.
(§2) The human EP1 or EP3 calcium mobilisation assay (hereafter referred to as ‘the calcium assay’) utilises Chinese hamster ovary-K1 (CHO-K1) cells into which a stable (pCIN; BioTechniques 20 (1996): 102-110) vector containing either EP1 or EP3 cDNA has previously been transfected. Cells are cultured in suitable flasks containing culture medium such as DMEM:F-12 supplemented with 10% v/v foetal calf serum, 2 mM L-glutamine, 0.25 mg/ml geneticin, 100 μM flurbiprofen and 10 µg/ml puromycin.
(§3) For assay, cells are harvested using a proprietary reagent that dislodges cells such as Versene. Cells are re-suspended in a suitable quantity of fresh culture media for introduction into a 384-well plate. Following incubation for 24 hours at 37° C. the culture media is replaced with a medium containing Fluo-4 and the detergent pluronic acid, and a further incubation takes place. Concentrations of compounds are then added to the plate in order to construct concentration-effect curves. This may be performed on the FLIPR in order to assess the agonist properties of the compounds. Concentrations of PGE2 are then added to the plate in order to assess the antagonist properties of the compounds.
(§4) The data so generated may be analysed by means of a computerised curve-fitting routine. The concentration of compound that elicits a half-maximal inhibition of the calcium mobilisation induced by PGE2 (pIC50) may then be estimated.

A further test deals with T2, TP receptor (Homo sapiens, UniProt P21731).
T2 construct: expressed in transfected cells; host or cells: CHO-K1
T2 sequence (P21731 1-343): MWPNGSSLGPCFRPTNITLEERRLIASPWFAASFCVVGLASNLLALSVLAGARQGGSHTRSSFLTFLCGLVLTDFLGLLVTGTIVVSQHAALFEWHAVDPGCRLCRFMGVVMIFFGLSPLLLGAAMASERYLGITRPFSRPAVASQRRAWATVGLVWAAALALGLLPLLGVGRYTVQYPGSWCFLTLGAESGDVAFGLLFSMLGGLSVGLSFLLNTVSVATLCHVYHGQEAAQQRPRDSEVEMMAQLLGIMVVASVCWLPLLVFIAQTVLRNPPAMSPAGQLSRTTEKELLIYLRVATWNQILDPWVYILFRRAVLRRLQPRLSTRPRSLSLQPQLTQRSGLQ
Kind of test: human TP calcium mobilisation assay (CHO-K1 cells, U46619, FLIPR). The note with it: free bases or sodium salts; read-out: functional pKi, human TP calcium mobilisation assay (converted). As for the experimental part:
as §1, with “To determine if a compound has agonist or antagonist activity at the TP receptor a functional calcium mobilisation assay may be performed. Briefly,” for “Briefly,”, “TP” for “EP1 or EP3”, “stable TXA2 mimetic U46619 (9,11-dideoxy-11α,9α-epoxy-methanoprostaglandin F2 α; commercially available from e.g Sigma-Aldrich).” for “natural agonist hormone prostaglandin E2 (PGE2).”, “U46619” for “PGE2”, “curve.” for “curve to higher concentrations of PGE2.”, “software. The agonist activity of the compounds are determined by their ability to cause an increase in intracellular mobilisation in the absence of U46619.” for “software.”
The human TP calcium mobilisation assay utilises Chinese hamster ovary-K1 (CHO-K1) cells into which a stable (pCIN; BioTechniques 20 (1996): 102-110) vector containing TP cDNA has previously been transfected. Cells are cultured in suitable flasks containing culture medium such as DMEM:F-12 supplemented with 10% v/v foetal calf serum, 2 mM L-glutamine, 0.25 mg/ml geneticin, 100 μM flurbiprofen and 10 μg/ml puromycin.
as §3, with “96-well” for “384-well”, “U46619” for “PGE2”
The data so generated may be analysed by means of a computerised curve-fitting routine. The concentration of compound that elicits a half-maximal inhibition of the calcium mobilisation induced by U46619 (plC50) may then be estimated, and the percentage activation caused by the compounds directly can be used to determine if there is any agonism present.

A further test has as its target T3, EP3 receptors (Homo sapiens, UniProt P43115).
T3 construct: expressed in transfected cells; host or cells: CHO-K1
T3 sequence (P43115 1-390): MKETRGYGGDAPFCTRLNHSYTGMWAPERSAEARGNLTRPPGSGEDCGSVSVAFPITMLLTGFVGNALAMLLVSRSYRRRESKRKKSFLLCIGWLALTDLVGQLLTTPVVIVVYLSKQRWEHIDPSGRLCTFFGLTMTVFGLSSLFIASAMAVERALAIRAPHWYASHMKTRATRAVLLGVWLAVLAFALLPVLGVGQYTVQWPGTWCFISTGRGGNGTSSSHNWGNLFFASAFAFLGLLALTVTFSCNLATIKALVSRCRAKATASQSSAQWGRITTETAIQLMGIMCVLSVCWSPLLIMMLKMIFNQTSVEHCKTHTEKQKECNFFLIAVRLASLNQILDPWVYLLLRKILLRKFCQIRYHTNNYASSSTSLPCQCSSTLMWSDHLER
Kind of test: human EP3 calcium mobilisation assay (CHO-K1 cells, PGE2, FLIPR). Conditions: free bases or sodium salts; averages of a number of experiments; read-out: functional pKi value, human EP3 calcium mobilisation assay (converted). As for the experimental part:
as §1, §2, §3, §4

The structures appear in SMILES notation. Structures can show the parent of a compound that is named as a salt. Bounds are passed on as bounds.

For `O=C(O)c1cc(Cl)cc(Cc2cc(Cl)ccc2OCc2ccc(Cl)cc2F)n1` [Example 37, 4-Chloro-6-[(5-chloro-2-{[(4-chloro-2-fluorophenyl)-methyl]oxy}phenyl)methyl]-2-pyridinecarboxylic acid, sodium salt], at EP1 receptors, the Ki is no more than 31.6 nM.
Turning to `O=C(O)c1cccc(Cc2cc(Cl)ccc2OCc2ccccc2)n1` [Example 1, 6-({5-Chloro-2-[(phenylmethyl)oxy]phenyl}methyl)-2-pyridinecarboxylic acid], the Ki on TP receptor was greater than 1000 nM.
For the compound `CC(C)COc1ccc(Cl)cc1Cc1cccc(C(=O)O)n1` [Example 15, Sodium 6-({5-chloro-2-[(2-methylpropyl)oxy]phenyl}methyl)-2-pyridinecarboxylate], the Ki was less than 1000 nM on EP1 receptors, greater than 10000 nM on EP3 receptors and greater than 1000 nM at TP receptor.
Turning to `COc1ccc(S(=O)(=O)NC(=O)c2cccc(Cc3cc(Cl)ccc3OCc3ccc(Cl)cc3F)n2)cc1` [Example 32, 6-[(5-Chloro-2-{[(4-chloro-2-fluorophenyl)methyl]oxy}-phenyl)methyl]-N-{[4-methoxyphenyl]suiphonyl}-2-pyridine-carboxamide], the results for the Ki on EP1 receptors and at EP3 receptors were greater than 1000 nM and greater than 10000 nM, respectively.
Turning to `O=C(O)c1cccc(Cc2cc(Cl)ccc2OCc2ccc(F)c(F)c2F)n1` [Example 7, Sodium 6-[(5-chloro-2-{[(2,3,4-trifluorophenyl)methyl]oxy}phenyl)methyl]-2-pyridinecarboxylate], the Ki on EP1 receptors and at TP receptor was less than 1000 nM throughout.
For `O=C(O)c1cccc(Cc2cc(Cl)ccc2OCc2ccccc2Cl)n1` [Example 13, Sodium 6-[(5-chloro-2-{[(2-chlorophenyl)methyl]oxy}phenyl)methyl]-2-pyridinecarboxylate], the Ki is no more than 31.6 nM at EP1 receptors and greater than 1000 nM on TP receptor.
In the case of `CC(C)Oc1ccc(Cl)cc1Cc1cccc(C(=O)O)n1` [Example 16, Sodium 6-({5-chloro-2-[(1-methylethyl)oxy]phenyl}methyl)-2-pyridinecarboxylate], the Ki at EP1 receptors was less than 1000 nM; on EP3 receptors, greater than 10000 nM.
Take `Cc1ccc(Cc2cc(Cl)ccc2OCc2ccc(Cl)cc2F)nc1C(=O)O` [Example 40, 6-[(5-Chloro-2-{[(4-chloro-2-fluorophenyl)methyl]oxy}-phenyl)methyl]-3-methyl-2-pyridinecarboxylic acid, sodium salt]: the Ki on EP1 receptors is greater than 1000 nM; at EP3 receptors it was greater than 10000 nM.
On to `O=C(NS(=O)(=O)c1cc(Cl)cc(Cl)c1)c1cccc(Cc2cc(Cl)ccc2OCc2ccc(Cl)cc2F)n1` [Example 31], for which the Ki at EP1 receptors was greater than 1000 nM; at EP3 receptors, greater than 10000 nM.
Turning to `CCC(CC)COc1ccc(Cl)cc1Cc1cccc(C(=O)O)n1` [Example 20, Sodium 6-({5-chloro-2-[(2-ethylbutyl)oxy]phenyl}methyl)-2-pyridinecarboxylate], the Ki at EP1 receptors is less than 1000 nM.
Consider `O=C(O)c1cccc(Cc2cc(Cl)ccc2OCc2ccc(F)cc2)n1` [Example 5, sodium 6-[(5-chloro-2-{[(4-fluorophenyl)methyl]oxy}phenyl)methyl]-2-pyridinecarboxylate], for which the Ki on EP1 receptors and on TP receptor was less than 1000 nM in each case.
As to `O=C(O)c1cccc(Cc2cc(Cl)ccc2OCc2c(F)cc(F)cc2F)n1` [Example 6, Sodium 6-[(5-chloro-2-{[(2,4,6-trifluorophenyl)methyl]oxy}phenyl)methyl]-2-pyridinecarboxylate], the Ki on EP1 receptors and on TP receptor was less than 1000 nM in each case.
For `O=C(O)c1cccc(Cc2cc(Cl)ccc2OCC2CC2)n1` [Example 17, Sodium 6-({5-chloro-2-[(cyclopropylmethyl)oxy]phenyl}methyl)-2-pyridinecarboxylate], the Ki at EP1 receptors is less than 1000 nM; on EP3 receptors it was greater than 10000 nM.
With `C=C(C)COc1ccc(Cl)cc1Cc1cccc(C(=O)O)n1` [Example 2, 6-({5-Chloro-2-[(2-methyl-2-propen-1-yl)oxy]phenyl}methyl)-2-pyridinecarboxylic acid], the Ki on EP1 receptors is no more than 31.6 nM; on EP3 receptors it was greater than 10000 nM.
For `O=C(O)c1cccc(Cc2cc(Cl)ccc2OC2CCCC2)n1` [Example 19, Sodium 6-{[5-chloro-2-(cyclopentyloxy)phenyl]methyl}-2-pyridinecarboxylate], the Ki on EP1 receptors is less than 1000 nM; on EP3 receptors, greater than 10000 nM.
Regarding `CC(=O)Nc1ccc(S(=O)(=O)NC(=O)c2cccc(Cc3cc(Cl)ccc3OCc3ccc(Cl)cc3F)n2)cc1` [Example 35, N-{[4-(Acetylamino)phenyl]-sulphonyl}-6-[(5-chloro-2-{[(4-chloro-2-fluorophenyl)methyl]-oxy}phenyl)methyl]-2-pyridine-carboxamide], the Ki at EP1 receptors is less than 1000 nM; at EP3 receptors, greater than 10000 nM.
Take `O=C(O)c1cccc(Cc2cc(Cl)ccc2OCC2CCCCC2)n1` [Example 18, Sodium 6-({5-chloro-2-[(cyclohexylmethyl)oxy]phenyl}methyl)-2-pyridinecarboxylate]: the Ki at EP1 receptors was no more than 31.6 nM.

(Values after patent publication US7759369B2, “Pyridine compounds for the treatment of prostaglandin mediated diseases” (Glaxo Group Limited, priority 2004, dated 2010).)
